Reference: ChEMBL document CHEMBL1140961, “Synthesis and biological activity of some new benzoxazoles” (2008)
≈ marks a conversion by molar mass, not a printed value.

How the values were obtained:
Type in all cases: functional
[1] = tested on: Klebsiella pneumoniae; test: Antimicrobial activity against Klebsiella pneumoniae RSHM 574 after 24 hrs by disk diffusion method
[2] = tested on: Klebsiella pneumoniae; test: Antimicrobial activity against Klebsiella pneumoniae after 24 hrs by disk diffusion method
[3] = tested on: Bacillus subtilis; test: Antimicrobial activity against Bacillus subtilis isolate after 24 hrs by disk diffusion method
[4] = tested on: Candida albicans; test: Antimicrobial activity against Candida albicans isolate after 24 to 48 hrs after 24 hrs by disk diffusion method
[5] = tested on: Staphylococcus aureus; test: Antimicrobial activity against Staphylococcus aureus ATCC 25923 after 24 hrs by disk diffusion method
[6] = tested on: Escherichia coli; test: Antimicrobial activity against Escherichia coli ATCC 25922 after 24 hrs by disk diffusion method
[7] = tested on: Pseudomonas aeruginosa; test: Antimicrobial activity against Pseudomonas aeruginosa ATCC […] after 24 hrs by disk diffusion method
[8] = tested on: Escherichia coli; test: Antimicrobial activity against Escherichia coli isolate after 24 hrs by disk diffusion method
[9] = tested on: Staphylococcus aureus; test: Antimicrobial activity against Staphylococcus aureus isolate after 24 hrs by disk diffusion method
[10] = tested on: Bacillus subtilis; test: Antimicrobial activity against Bacillus subtilis ATCC 6633 after 24 hrs by disk diffusion method
[11] = tested on: Candida albicans; test: Antimicrobial activity against Candida albicans ATCC 10231 after 24 to 48 hrs after 24 hrs by disk diffusion method

Molecule	MIC [1] [µg/mL]	MIC [2] [µg/mL]	MIC [3] [µg/mL]	MIC [4] [µg/mL]	MIC ([5]; ATCC 25923, 24 h) [µg/mL]	MIC ([6]; ATCC 25922, 24 h) [µg/mL]	MIC ([7]; ATCC 25853, 24 h) [µg/mL]	MIC [8] [µg/mL]	MIC [9] [µg/mL]	MIC ([10]; ATCC 6633, 24 h) [µg/mL]	MIC [11] [µg/mL]	MIC [5] [µg/mL]	MIC [6] [µg/mL]	MIC [7] [µg/mL]	MIC [10] [µg/mL]
CCS(=O)(=O)c1ccc2oc(-c3ccc(C)cc3)nc2c1	62.5 (≈ 207 µM)	31.2 (≈ 104 µM)	31.2 (≈ 104 µM)	31.2 (≈ 104 µM)	125 (≈ 415 µM)	62.5 (≈ 207 µM)	62.5 (≈ 207 µM)	62.5 (≈ 207 µM)	125 (≈ 415 µM)	31.2 (≈ 104 µM)	125 (≈ 415 µM)				
CCS(=O)(=O)c1ccc2oc(-c3ccccc3Cl)nc2c1	31.2 (≈ 97.1 µM)	125 (≈ 388 µM)	31.2 (≈ 97.1 µM)	62.5 (≈ 194 µM)	125 (≈ 388 µM)	62.5 (≈ 194 µM)	62.5 (≈ 194 µM)	125 (≈ 388 µM)	125 (≈ 388 µM)	15.6 (≈ 48.5 µM)	31.2 (≈ 97.1 µM)				
CCS(=O)(=O)c1ccc2oc(-c3cc(Br)ccc3Cl)nc2c1	62.5 (≈ 156 µM)	125 (≈ 312 µM)	31.2 (≈ 78 µM)	62.5 (≈ 156 µM)	125 (≈ 312 µM)	62.5 (≈ 156 µM)	62.5 (≈ 156 µM)	125 (≈ 312 µM)	125 (≈ 312 µM)	62.5 (≈ 156 µM)	62.5 (≈ 156 µM)				
CCS(=O)(=O)c1ccc2oc(-c3ccc([N+](=O)[O-])cc3)nc2c1	125 (≈ 376 µM)	125 (≈ 376 µM)	15.6 (≈ 47 µM)	62.5 (≈ 188 µM)	125 (≈ 376 µM)	62.5 (≈ 188 µM)	62.5 (≈ 188 µM)	62.5 (≈ 188 µM)	125 (≈ 376 µM)	31.2 (≈ 94 µM)	125 (≈ 376 µM)				
CCS(=O)(=O)c1ccc2oc(-c3ccc(C(C)(C)C)cc3)nc2c1	62.5 (≈ 182 µM)	250 (≈ 728 µM)	15.6 (≈ 45.5 µM)	31.2 (≈ 91 µM)	125 (≈ 364 µM)	62.5 (≈ 182 µM)	62.5 (≈ 182 µM)	62.5 (≈ 182 µM)	125 (≈ 364 µM)	7.81 (≈ 22.7 µM)	125 (≈ 364 µM)				
CCS(=O)(=O)c1ccc2oc(Cc3ccccc3Cl)nc2c1	31.2 (≈ 93.1 µM)	125 (≈ 372 µM)	31.2 (≈ 93.1 µM)	62.5 (≈ 186 µM)	125 (≈ 372 µM)	62.5 (≈ 186 µM)	62.5 (≈ 186 µM)	125 (≈ 372 µM)	125 (≈ 372 µM)	62.5 (≈ 186 µM)	62.5 (≈ 186 µM)				
CCS(=O)(=O)c1ccc2oc(-c3ccccc3Br)nc2c1	31.2 (≈ 85.3 µM)	125 (≈ 341 µM)	31.2 (≈ 85.3 µM)	62.5 (≈ 171 µM)	125 (≈ 341 µM)	62.5 (≈ 171 µM)	62.5 (≈ 171 µM)	250 (≈ 683 µM)	125 (≈ 341 µM)	15.6 (≈ 42.7 µM)	62.5 (≈ 171 µM)				
CCS(=O)(=O)c1ccc2oc(-c3ccc(F)cc3)nc2c1	31.2 (≈ 102 µM)	125 (≈ 409 µM)	31.2 (≈ 102 µM)	31.2 (≈ 102 µM)	125 (≈ 409 µM)	62.5 (≈ 205 µM)	62.5 (≈ 205 µM)	62.5 (≈ 205 µM)	125 (≈ 409 µM)	31.2 (≈ 102 µM)	125 (≈ 409 µM)				
OC(Cn1cncn1)(Cn1cncn1)c1ccc(F)cc1F [FLUCONAZOLE]				64 (≈ 209 µM)							1 (≈ 3.27 µM)				
CC1COc2c(N3CCN(C)CC3)c(F)cc3c(=O)c(C(=O)O)cn1c23 (stereo not given) [OFLOXACIN]	0.25 (≈ 0.692 µM)	64 (≈ 177 µM)	32 (≈ 88.6 µM)		0.25 (≈ 0.692 µM)	0.125 (≈ 0.346 µM)	8 (≈ 22.1 µM)	32 (≈ 88.6 µM)	2 (≈ 5.53 µM)	0.125 (≈ 0.346 µM)					
CCS(=O)(=O)c1ccc2oc(Cc3ccc(C)cc3)nc2c1	62.5 (≈ 198 µM)	125 (≈ 396 µM)	31.2 (≈ 99.1 µM)	62.5 (≈ 198 µM)	125 (≈ 396 µM)	62.5 (≈ 198 µM)	62.5 (≈ 198 µM)	125 (≈ 396 µM)	125 (≈ 396 µM)	31.2 (≈ 99.1 µM)	62.5 (≈ 198 µM)				
CCS(=O)(=O)c1ccc2oc(-c3ccccc3)nc2c1	125 (≈ 435 µM)	125 (≈ 435 µM)	31.2 (≈ 109 µM)	31.2 (≈ 109 µM)	125 (≈ 435 µM)	62.5 (≈ 218 µM)	62.5 (≈ 218 µM)	62.5 (≈ 218 µM)	125 (≈ 435 µM)	62.5 (≈ 218 µM)	125 (≈ 435 µM)				
GENTAMICIN SULFATE	8	64	512					1	1020			0.06	0.5	2	1
CCS(=O)(=O)c1ccc2oc(CCc3ccccc3)nc2c1	31.2 (≈ 99.1 µM)	125 (≈ 396 µM)	31.2 (≈ 99.1 µM)	62.5 (≈ 198 µM)	125 (≈ 396 µM)	62.5 (≈ 198 µM)	62.5 (≈ 198 µM)	125 (≈ 396 µM)	125 (≈ 396 µM)	62.5 (≈ 198 µM)	62.5 (≈ 198 µM)				
CCS(=O)(=O)c1ccc2oc(-c3ccc(Br)cc3)nc2c1	62.5 (≈ 171 µM)	125 (≈ 341 µM)	31.2 (≈ 85.3 µM)	31.2 (≈ 85.3 µM)	125 (≈ 341 µM)	62.5 (≈ 171 µM)	62.5 (≈ 171 µM)	62.5 (≈ 171 µM)	125 (≈ 341 µM)	15.6 (≈ 42.7 µM)	125 (≈ 341 µM)				
CCc1ccc(-c2nc3cc(S(=O)(=O)CC)ccc3o2)cc1	62.5 (≈ 198 µM)	125 (≈ 396 µM)	31.2 (≈ 99.1 µM)	15.6 (≈ 49.5 µM)	125 (≈ 396 µM)	62.5 (≈ 198 µM)	62.5 (≈ 198 µM)	62.5 (≈ 198 µM)	125 (≈ 396 µM)	31.2 (≈ 99.1 µM)	125 (≈ 396 µM)				
CCS(=O)(=O)c1ccc2oc(Cc3ccc(Br)cc3)nc2c1	62.5 (≈ 164 µM)	125 (≈ 329 µM)	15.6 (≈ 41.1 µM)	62.5 (≈ 164 µM)	125 (≈ 329 µM)	62.5 (≈ 164 µM)	62.5 (≈ 164 µM)	125 (≈ 329 µM)	125 (≈ 329 µM)	62.5 (≈ 164 µM)	62.5 (≈ 164 µM)				
CCS(=O)(=O)c1ccc2oc(-c3ccccc3F)nc2c1	31.2 (≈ 102 µM)	125 (≈ 409 µM)	31.2 (≈ 102 µM)	62.5 (≈ 205 µM)	125 (≈ 409 µM)	62.5 (≈ 205 µM)	62.5 (≈ 205 µM)	250 (≈ 819 µM)	125 (≈ 409 µM)	62.5 (≈ 205 µM)	62.5 (≈ 205 µM)				
CCS(=O)(=O)c1ccc2oc(Cc3ccc(Cl)cc3)nc2c1	62.5 (≈ 186 µM)	125 (≈ 372 µM)	15.6 (≈ 46.5 µM)	62.5 (≈ 186 µM)	125 (≈ 372 µM)	62.5 (≈ 186 µM)	62.5 (≈ 186 µM)	125 (≈ 372 µM)	125 (≈ 372 µM)	31.2 (≈ 93.1 µM)	31.2 (≈ 93.1 µM)				
CCS(=O)(=O)c1ccc2oc(-c3ccc(Cl)cc3)nc2c1	62.5 (≈ 194 µM)	125 (≈ 388 µM)	31.2 (≈ 97.1 µM)	15.6 (≈ 48.5 µM)	125 (≈ 388 µM)	62.5 (≈ 194 µM)	62.5 (≈ 194 µM)	62.5 (≈ 194 µM)	125 (≈ 388 µM)	7.81 (≈ 24.3 µM)	125 (≈ 388 µM)				
C[C@@H]1[C@H](O)[C@@H](C)/C=C/C=C/C=C/C=C/C=C/C=C/C=C/[C@H](O[C@@H]2O[C@H](C)[C@@H](O)[C@H](N)[C@@H]2O)C[C@@H]2O[C@](O)(C[C@@H](O)C[C@@H](O)[C@H](O)CC[C@@H](O)C[C@@H](O)CC(=O)O[C@H]1C)C[C@H](O)[C@H]2C(=O)O [AMPHOTERICIN B]				1 (≈ 1.08 µM)							1 (≈ 1.08 µM)				
CCS(=O)(=O)c1ccc2oc(Cc3ccc(F)cc3)nc2c1	31.2 (≈ 97.9 µM)	125 (≈ 391 µM)	31.2 (≈ 97.9 µM)	31.2 (≈ 97.9 µM)	125 (≈ 391 µM)	62.5 (≈ 196 µM)	62.5 (≈ 196 µM)	125 (≈ 391 µM)	125 (≈ 391 µM)	62.5 (≈ 196 µM)	62.5 (≈ 196 µM)				
CCS(=O)(=O)c1ccc2oc(-c3cccc(C)c3C)nc2c1	31.2 (≈ 99.1 µM)	125 (≈ 396 µM)	31.2 (≈ 99.1 µM)	62.5 (≈ 198 µM)	125 (≈ 396 µM)	62.5 (≈ 198 µM)	62.5 (≈ 198 µM)	250 (≈ 793 µM)	125 (≈ 396 µM)	15.6 (≈ 49.5 µM)	31.2 (≈ 99.1 µM)				
CC1(C)S[C@@H]2[C@H](NC(=O)[C@H](N)c3ccccc3)C(=O)N2[C@H]1C(=O)O.O.O.O [AMPICILLIN TRIHYDRATE]	2	256	8		0.03	8	4100	256	2	0.25					
